In patent publication US20190336602A1, “STERILISATION OF S-NITROSOTHIOLS” (Salupont Consulting Ltd., priority 2015, published 2019):
Read-outs that look alike come from different tables or passages of the source.

Assays:
[1] = e-beam sterilisation of S-nitrosoglutathione at unconstrained temperature (Example 1), HPLC purity and impurities vs non-irradiated control; assay type: physicochemical; conditions: ~27.5 °C
Protocol: S-nitrosoglutathione granule samples from a single manufacturing batch, contained in glass vials (up to 250 mg/vial), were stored before sterilisation surrounded by dry ice (solid CO2) at about −80° C. The matching controls were not irradiated but underwent similar conditions of storage and thermal management before, during and after irradiation, as compared with the S-nitrosoglutathione vials that were irradiated. The control purity levels of the S-nitrosoglutathione, and the level of specific impurities glutathione (GSH) and oxidised glutathione (GSSG) content and total impurities content, were analysed. Vials were exposed to either electron beam (e-beam) irradiations or to gamma irradiations. The vials were removed from the dry ice container and sterilised via two radiation dose conditions (15 kGy and 35 kGy) described below under higher temperature conditions (with surrounding air temperature in the range about 18 to 24° C. and with the temperature of the vials free to fluctuate to higher temperature). After irradiation, the vials were immediately surrounded by dry ice at about −80° C. and analysed for post-sterilisation determination of any changes in purity against the control. The e-beam radiation was performed using a moving carrier system set up for delivering a 15 kGy dose and a 35 kGy dose. The 15 kGy radiation dose lasted about 10-15 minutes and the temperature reached approximately equal to 27.5° C. (designated 27.5° C. in the Tables and Figs.). The 35 kGy radiation dose lasted about 30 minutes and the temperature reached approximately equal to 27.5° C. (designated ˜27.5° C. in the Tables and the Figs.). The radiation doses were measured by conventional dosimeters.

[2] = gamma sterilisation of S-nitrosoglutathione at unconstrained temperature (Example 1), HPLC purity and impurities vs non-irradiated control; assay type: physicochemical
Protocol: S-nitrosoglutathione granule samples from a single manufacturing batch, contained in glass vials (up to 250 mg/vial), were stored before sterilisation surrounded by dry ice (solid CO2) at about −80° C. The matching controls were not irradiated but underwent similar conditions of storage and thermal management before, during and after irradiation, as compared with the S-nitrosoglutathione vials that were irradiated. The control purity levels of the S-nitrosoglutathione, and the level of specific impurities glutathione (GSH) and oxidised glutathione (GSSG) content and total impurities content, were analysed. Vials were exposed to either electron beam (e-beam) irradiations or to gamma irradiations. The vials were removed from the dry ice container and sterilised via two radiation dose conditions (15 kGy and 35 kGy) described below under higher temperature conditions (with surrounding air temperature in the range about 18 to 24° C. and with the temperature of the vials free to fluctuate to higher temperature). After irradiation, the vials were immediately surrounded by dry ice at about −80° C. and analysed for post-sterilisation determination of any changes in purity against the control. The gamma radiation was performed using a moving carrier system set up for delivering a 15 kGy dose and a 35 kGy dose. The 15 kGy dose radiation lasted about 8-10 hours and the temperature reached up to 40° C. The 35 kGy dose radiation lasted about 18-24 hours, with a temperature reaching up to 60° C. The radiation doses received were measured by conventional dosimeters.

[3] = e-beam sterilisation of S-nitrosoglutathione at constrained temperatures (Example 2), HPLC purity and impurities vs non-irradiated control; assay type: physicochemical; conditions: few sec.
Protocol: The experimental protocol for this Example aims to test in a controlled manner the effects on purity of a sterilizing irradiation temperature (a) at about −80° C. and (b) under positive cooling (with surrounding air temperature in the range about 18 to 24° C. and with the temperature of the vials controlled). The same radiation doses as described for Example 1 were applied. For this Example, S-nitrosoglutathione granule samples, from the same single manufacturing batch as in Example 1, contained in amber glass vials (100 mg/vial) were stored before sterilisation at about −80° C. The irradiation process at −80° C. was achieved by the presence of dry ice, which was placed to ensure low temperature of the vials but without influencing the radiation dose delivery characteristics. The matching controls were not irradiated but underwent similar conditions of thermal management before, during and after irradiation, as compared with the S-nitrosoglutathione vials that were irradiated. The e-beam radiation was performed using a moving carrier system. The S-nitrosoglutathione vials were stored at −80° C. freezer and transferred to a dry ice container before irradiation. Before the start of irradiation the S-nitrosoglutathione vials destined for irradiation at ambient temperature (and control vials) were removed from the −80° C. freezer and transferred to a location where the surrounding air temperature is controlled at 18° C. Individual low-temperature containers were used for the vials designated for each target dose and condition of thermal management. A secondary packaging box was placed in the lateral centre at the bottom of the first low-temperature container, with the vials oriented upright. The position of each vial in the configuration was documented. The vials were always irradiated from the same side. […] The arrows marked “e” show the direction of the radiation. For the S-nitrosoglutathione vials requiring cold chain management, dry ice was placed at each lateral short side of the container to ensure a cold chain was maintained during the irradiation process. Each container was placed in an irradiation container. Both the 15 kGy e-beam and 35 kGy radiation doses lasted a few seconds. Following completion of the desired irradiation process, the irradiated S-nitrosoglutathione containing vials and correspondent controls were stored at −80° C. in a freezer for subsequent analysis.

[4] = gamma sterilisation of S-nitrosoglutathione at constrained temperatures (Example 2), HPLC purity and impurities vs non-irradiated control; assay type: physicochemical
Protocol: The experimental protocol for this Example aims to test in a controlled manner the effects on purity of a sterilizing irradiation temperature (a) at about −80° C. and (b) under positive cooling (with surrounding air temperature in the range about 18 to 24° C. and with the temperature of the vials controlled). The same radiation doses as described for Example 1 were applied. For this Example, S-nitrosoglutathione granule samples, from the same single manufacturing batch as in Example 1, contained in amber glass vials (100 mg/vial) were stored before sterilisation at about −80° C. The irradiation process at −80° C. was achieved by the presence of dry ice, which was placed to ensure low temperature of the vials but without influencing the radiation dose delivery characteristics. The matching controls were not irradiated but underwent similar conditions of thermal management before, during and after irradiation, as compared with the S-nitrosoglutathione vials that were irradiated. The gamma radiation was performed using gamma radiation emitted from cobalt-60 radioactive sources. The S-nitrosoglutathione vials were stored at −80° C. in a freezer and transferred to a dry ice container before irradiation. Before the start of irradiation, the S-nitrosoglutathione vials destined for irradiation at ambient temperature (and control vials) were removed from the −80° C. freezer and transferred to a location where the surrounding temperature was controlled at 18° C. Individual low-temperature containers were used for the samples designated for each target dose and condition of thermal management, as described above in relation to the e-beam arm of this Example. The secondary packaging was placed in the lateral centre at the bottom of first low-temperature container, with the vials oriented upright. […] The arrows marked “γ” show the direction of the radiation. For the S-nitrosoglutathione product requiring cold chain management, dry ice was placed at each lateral short side of the low-temperature container to ensure a cold chain was maintained during the irradiation process. Each low-temperature container was placed in the lateral centre of an irradiation container. The 15 kGy radiation dose lasted 2 hours and 8 minutes whereas the 35 kGy dose lasted about 5 hours and 8 minutes. When necessary, the dry ice was replenished before execution of the second irradiation. Following completion of the irradiation process, the irradiated S-nitrosoglutathione products were placed in the designated −80° C. freezer. The control samples were moved from the 18° C. controlled location to the designated −80° C. freezer upon completion of the second irradiation. The time of transfer was recorded.

[5] = cited from earlier work
[6] = liquid formulation, after at least 8-12 hours at 4 °C to 25 °C (Looker et al., 2008); cited from earlier work

N[C@@H](CCC(=O)N[C@@H](CSN=O)C(=O)NCC(=O)O)C(=O)O [GSNO, S-nitrosoglutathione]
GSH impurity (% unit change) ([1]; 15 kGy, 10-15 minutes): 0.17%
GSNO purity (decrease % of control) ([1]; 15 kGy, 10-15 minutes): −0.55%
GSSH impurity (% unit change) ([1]; 15 kGy, 10-15 minutes): 0.11%
Total impurities (% unit changes) ([1]; 15 kGy, 10-15 minutes): 0.53%
GSH impurity (% unit change) ([1]; 35 kGy, ~30 minutes): 0.36%
GSNO purity (decrease % of control) ([1]; 35 kGy, ~30 minutes): −1.37%
GSSH impurity (% unit change) ([1]; 35 kGy, ~30 minutes): 0.32%
Total impurities (% unit changes) ([1]; 35 kGy, ~30 minutes): 1.26%
GSH impurity (% unit change) ([2]; 15 kGy, 8-10 hours, <40 °C): 0.34%
GSNO purity (decrease % of control) ([2]; 15 kGy, 8-10 hours, <40 °C): −4.47%
GSSH impurity (% unit change) ([2]; 15 kGy, 8-10 hours, <40 °C): 1.25%
Total impurities (% unit changes) ([2]; 15 kGy, 8-10 hours, <40 °C): 4.25%
GSH impurity (% unit change) ([2]; 35 kGy, 18-24 hours, <60 °C): 0.15%
GSNO purity (decrease % of control) ([2]; 35 kGy, 18-24 hours, <60 °C): −9.45%
GSSH impurity (% unit change) ([2]; 35 kGy, 18-24 hours, <60 °C): 6.63%
Total impurities (% unit changes) ([2]; 35 kGy, 18-24 hours, <60 °C): 9.12%
GSH impurity (% unit change) ([3]; 15 kGy, <27.5 °C): 0.13%
GSNO purity (decrease % of control) ([3]; 15 kGy, <27.5 °C): −0.28%
GSSH impurity (% unit change) ([3]; 15 kGy, <27.5 °C): 0.13%
Total impurities (% unit changes) ([3]; 15 kGy, <27.5 °C): 0.27%
GSH impurity (% unit change) ([3]; 15 kGy, −80 °C): 0.10%
GSNO purity (decrease % of control) ([3]; 15 kGy, −80 °C): −0.16%
GSSH impurity (% unit change) ([3]; 15 kGy, −80 °C): 0.10%
Total impurities (% unit changes) ([3]; 15 kGy, −80 °C): 0.16%
GSH impurity (% unit change) ([3]; 35 kGy, <27.5 °C): 0.29%
GSNO purity (decrease % of control) ([3]; 35 kGy, <27.5 °C): −1.12%
GSSH impurity (% unit change) ([3]; 35 kGy, <27.5 °C): 0.23%
Total impurities (% unit changes) ([3]; 35 kGy, <27.5 °C): 1.08%
GSH impurity (% unit change) ([3]; 35 kGy, −80 °C): 0.23%
GSNO purity (decrease % of control) ([3]; 35 kGy, −80 °C): −0.55%
GSSH impurity (% unit change) ([3]; 35 kGy, −80 °C): 0.07%
Total impurities (% unit changes) ([3]; 35 kGy, −80 °C): 0.54%
GSH impurity (% unit change) ([4]; 15 kGy, ~2 h, <27.5 °C): 0.17%
GSNO purity (decrease % of control) ([4]; 15 kGy, ~2 h, <27.5 °C): −0.67%
GSSH impurity (% unit change) ([4]; 15 kGy, ~2 h, <27.5 °C): 0.14%
Total impurities (% unit changes) ([4]; 15 kGy, ~2 h, <27.5 °C): 0.63%
GSH impurity (% unit change) ([4]; 15 kGy, ~2 h, −80 °C): 0.11%
GSNO purity (decrease % of control) ([4]; 15 kGy, ~2 h, −80 °C): −0.26%
GSSH impurity (% unit change) ([4]; 15 kGy, ~2 h, −80 °C): 0.11%
Total impurities (% unit changes) ([4]; 15 kGy, ~2 h, −80 °C): 0.25%
GSH impurity (% unit change) ([4]; 35 kGy, ~5 h, <32.5 °C): 0.43%
GSNO purity (decrease % of control) ([4]; 35 kGy, ~5 h, <32.5 °C): −2.2%
GSSH impurity (% unit change) ([4]; 35 kGy, ~5 h, <32.5 °C): 0.36%
Total impurities (% unit changes) ([4]; 35 kGy, ~5 h, <32.5 °C): 2.11%
GSH impurity (% unit change) ([4]; 35 kGy, ~5 h, −80 °C): 0.29%
GSNO purity (decrease % of control) ([4]; 35 kGy, ~5 h, −80 °C): −1.01%
GSSH impurity (% unit change) ([4]; 35 kGy, ~5 h, −80 °C): 0.36%
Total impurities (% unit changes) ([4]; 35 kGy, ~5 h, −80 °C): 0.96%
time reported to be stable on storage ([5]; solid prepared by a specific method, further controlled air, radiation and temperature conditions (Looker et al., 2008; WO 2008/153762)): 9 months
time reported to be stable on storage ([5]; solid, inert atmosphere (argon and nitrogen), −20 °C, in the dark (Parent et al., 2013)): 6 months
initial S-nitrosoglutathione present after storage [6]: about 85%
